According to patent US8268859B2, “Glucocorticoid mimetics, methods of making them, pharmaceutical compositions and uses thereof” (Boehringer Ingelheim International GmbH, priority 2008, dated 2012):
In brackets after ≈: the same amount, converted by molar mass.

Tests used:
[1] = High throughput solubility; assay type: physicochemical; details: aqueous buffer (pION system solution), pH 7, aqueous buffer, kinetic from dmso stock
[2] = Human microsomal stability; assay type: in vitro ADME; details: pH 7.4; human liver microsomes; read-out: human liver microsome half life
Potassium Channel HERG = biological target: T1, Potassium Channel HERG (Homo sapiens, UniProt Q12809); experiment: hERG assays (either hERG binding assay or hERG patch clamp assay); assay type: cell-based; details: Table 3, not specified per compound
T1 construct: expressed in transfected cells; host or cells: HEK-293 cells

human recombinant CYP3A4 = human recombinant CYP3A4 (Homo sapiens, UniProt P08684); experiment: Cytochrome P450 inhibition assay (substrate 7-benzyloxy-4-(trifluoromethyl)coumarin); assay type: in vitro ADME; details: Table 3; read-out: CYP3A4 Inhibition IC50;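 note: compounds preincubated at least 10 min at 37 °C before adding enzyme plus substrate, reaction run 30 min at 37 °C, ketoconazole standard curve on every plate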
Sequence of human recombinant CYP3A4 (P08684 whole entry): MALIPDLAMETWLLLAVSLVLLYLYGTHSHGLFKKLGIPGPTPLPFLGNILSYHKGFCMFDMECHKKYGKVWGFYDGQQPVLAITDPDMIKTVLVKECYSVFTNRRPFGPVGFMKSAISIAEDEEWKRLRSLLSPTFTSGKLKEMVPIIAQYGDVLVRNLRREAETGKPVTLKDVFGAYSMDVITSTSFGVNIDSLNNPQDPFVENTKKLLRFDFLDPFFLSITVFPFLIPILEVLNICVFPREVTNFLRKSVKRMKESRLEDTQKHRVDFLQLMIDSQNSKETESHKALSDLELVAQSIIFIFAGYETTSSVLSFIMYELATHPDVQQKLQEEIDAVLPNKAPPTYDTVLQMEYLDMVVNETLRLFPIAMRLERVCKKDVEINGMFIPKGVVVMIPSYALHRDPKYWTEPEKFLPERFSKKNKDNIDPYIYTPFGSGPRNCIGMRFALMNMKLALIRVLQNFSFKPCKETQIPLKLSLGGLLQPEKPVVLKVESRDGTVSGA

T1 sequence (Q12809 whole entry): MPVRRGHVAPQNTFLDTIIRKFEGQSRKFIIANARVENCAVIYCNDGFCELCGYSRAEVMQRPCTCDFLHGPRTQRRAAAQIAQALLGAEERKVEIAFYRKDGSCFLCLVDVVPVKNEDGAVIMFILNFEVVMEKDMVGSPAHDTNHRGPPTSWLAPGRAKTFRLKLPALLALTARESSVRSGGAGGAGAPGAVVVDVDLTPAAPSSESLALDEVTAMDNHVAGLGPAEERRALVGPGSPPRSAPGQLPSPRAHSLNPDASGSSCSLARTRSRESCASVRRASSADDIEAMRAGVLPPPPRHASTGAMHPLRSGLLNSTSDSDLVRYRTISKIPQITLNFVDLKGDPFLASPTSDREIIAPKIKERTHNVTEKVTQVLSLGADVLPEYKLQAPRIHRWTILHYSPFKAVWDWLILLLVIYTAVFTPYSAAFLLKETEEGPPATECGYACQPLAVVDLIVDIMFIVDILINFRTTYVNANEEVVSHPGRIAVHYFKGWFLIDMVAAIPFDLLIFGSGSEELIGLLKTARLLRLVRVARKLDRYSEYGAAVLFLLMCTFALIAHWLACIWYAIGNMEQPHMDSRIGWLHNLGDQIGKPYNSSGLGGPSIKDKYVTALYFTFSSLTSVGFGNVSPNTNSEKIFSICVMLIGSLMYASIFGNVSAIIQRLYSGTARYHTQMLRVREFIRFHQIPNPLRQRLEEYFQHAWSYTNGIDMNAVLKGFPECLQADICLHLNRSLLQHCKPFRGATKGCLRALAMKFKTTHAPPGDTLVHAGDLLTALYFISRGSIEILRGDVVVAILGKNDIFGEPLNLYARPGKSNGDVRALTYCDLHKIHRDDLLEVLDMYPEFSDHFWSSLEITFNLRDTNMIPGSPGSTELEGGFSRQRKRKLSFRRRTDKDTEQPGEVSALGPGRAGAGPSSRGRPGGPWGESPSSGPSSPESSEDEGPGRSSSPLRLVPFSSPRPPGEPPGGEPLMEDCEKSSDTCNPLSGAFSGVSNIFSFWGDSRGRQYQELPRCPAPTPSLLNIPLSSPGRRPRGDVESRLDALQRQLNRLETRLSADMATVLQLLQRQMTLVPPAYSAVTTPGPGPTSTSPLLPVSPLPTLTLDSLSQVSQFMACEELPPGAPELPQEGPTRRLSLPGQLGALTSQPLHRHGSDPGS

| solubility [1] | half-life [2] | IC50 (human recombinant CYP3A4) | SMILES | IC50 (Potassium Channel HERG) |
| --- | --- | --- | --- | --- |
| 59 µg/mL (≈ 114 µM) | < 3 min |  | CC(C)(CC(O)(Cc1cc2cc(S(C)(=O)=O)ncc2[nH]1)C(F)(F)F)c1ccccc1S(C)(=O)=O (stereo not shown) |  |
| 17 µg/mL (≈ 35.2 µM) | 44 min |  | CC(C)(C[C@@](O)(Cc1cc2cc(S(C)(=O)=O)ncc2[nH]1)C(F)(F)F)c1ccccc1C(N)=O | > 30 µM |
| > 100 µg/mL | > 300 min |  | CCS(=O)(=O)c1cc2cc(C[C@](O)(CC(C)(C)c3ccc(F)cc3C(N)=O)C(F)(F)F)[nH]c2cn1 |  |
| > 100 µg/mL | 45 min |  | CC(C)(CC(O)(Cc1cc2cc(S(C)(=O)=O)ncc2[nH]1)C(F)(F)F)c1ccc(F)cc1C(N)=O (stereo not shown) | > 30 µM |
| > 100 µg/mL | 14 min |  | CC(C)(C[C@@](O)(Cc1cc2cc(S(C)(=O)=O)ncc2[nH]1)C(F)(F)F)c1ccc(F)cc1S(C)(=O)=O [drawing 100] | > 30 µM |

More lines, now with the values behind:

| SMILES | solubility [1] | half-life [2] | IC50 (human recombinant CYP3A4) | IC50 (Potassium Channel HERG) |
| --- | --- | --- | --- | --- |
| CC(C)(C[C@@](O)(Cc1cc2cc(S(C)(=O)=O)ncc2[nH]1)C(F)(F)F)c1cc(Cl)cc2c1OCC2 [drawing 95] |  | < 3 min | 6.5 µM | 9.4 µM |
| CC(C)(C[C@@](O)(Cc1cc2cc(S(C)(=O)=O)ncc2[nH]1)C(F)(F)F)c1ccc(Cl)cc1S(C)(=O)=O [drawing 97] | 40 µg/mL (≈ 72.3 µM) | 17 min |  | > 10 µM |
| CCS(=O)(=O)c1cc2cc(CC(O)(CC(C)(C)c3ccc(Cl)cc3S(C)(=O)=O)C(F)(F)F)[nH]c2cn1 (stereo not shown) [drawing 98] | 18 µg/mL (≈ 31.7 µM) | 11 min |  | > 10 µM |
| CCS(=O)(=O)c1cc2cc(CC(O)(CC(C)(C)c3ccc(F)cc3S(C)(=O)=O)C(F)(F)F)[nH]c2cn1 (stereo not shown) [drawing 99] | 52 µg/mL (≈ 94.4 µM) | 7 min |  | > 30 µM |
